The values that follow come from patent publication US9790173B2, “Alpha-7 nicotinic acetylcholine receptor modulators and uses thereof-I” (MERCK SHARP & DOHME CORP., priority 2012, dated 2017).

The target in one data set is T1, rat α7 nAChRs (Rattus norvegicus, UniProt Q05941).
T1 construct: expressed in transfected cells; host or cells: GH4C1 cells (rat pituitary line) stably expressing α7 nAChR
In words: Automated planar patch clamp (Patchliner) electrophysiology, α7 nAChR PAM activity. The format is cell-based. Further details: key to Type I or Type II: I: Type 1 predominately affects the peak current; Type II modulators affect the peak current and also delay the desensitization of the receptor. As to conditions: for Type I or Type II: modulator type based on the electrophysiology trace; for activation at 3 µM: GH4-C1, 3 μM compound in the presence of acetylcholine, GH4C1 cells expressing rat α7 nAChRs, peak current, read-out: Peak potentiation at 3 μM compound. As to the method: Tested compounds were prepared by serial dilutions of 10 mM stock solution in DMSO to concentrations of the compound 1000 times higher than its final concentration. The DMSO stock solutions were then diluted 1:100 in the recording buffer bringing DMSO concentration to 1%. These intermediate solutions were further diluted 10 times with buffer to obtain final concentrations and lower DMSO concentration to 0.1%. […]
Compounds of the invention may be evaluated by electrophysiology using a Patchliner® (Nanion Technologies GmbH, Germany), an automated planar patch-clamp platform of medium throughput was used as a first step in electrophysiological assessment of α7 nAChR positive allosteric modulators (PAMs).
Briefly, intracellular (KCl—50 mM, NaCl—10 mM, KF—60 mM, EGTA—20 mM, HEPES—10 mM, pH—7.2, 285 mOsmol) and extracellular (NaCl—140 mM, KCl—4 mM, CaCl2—2 mM, MgCl2—1 mM, HEPES—10 mM, D-Glucose—5 mM, pH—7.4, 298 mOsmol) solutions were automatically pipetted onto NPC-16 chip (medium resistance ˜2.5-2.6 MΩ). Suspension of GH4C1 cells expressing rat α7 nAChRs was introduced in 4 wells of a medium resistance chip and suction was applied to attract cells in the holes. The extracellular solution was subsequently exchanged to high calcium solution (NaCl—80 mM, KCl—3 mM, CaCl2—45 mM, HEPES—10 mM, pH—7.4, 298 mOsmol) followed by gigaohm seal formation and obtaining whole-cell configuration. The rest of protocol was carried out in the high-calcium recording solution. Holding potential was −70 mV throughout the protocol. A control response to 60 or 100 μM of ACh was obtained first. Next, a cell was pre-incubated with compound of interest at 3 μM for ˜30 s after which the compound was co-applied with acetylcholine.
Amplitude of the responses was measured in HEKA Patchmaster software (HEKA Elektronik, Germany) and percentage of potentiation calculated. Recording was repeated […] a minimum of two replicates had been obtained per compound.
Compounds shown in Table 1 were evaluated by automated planar patch clamp on the Patchliner® as described in Example P2.1. […] The compounds are designated either as Type I or Type II modulators based on the electrophysiology trace. Type 1 predominately affects the peak current. Type II modulators affect the peak current and also delay the desensitization of the receptor.

T1 sequence (Q05941 23-502): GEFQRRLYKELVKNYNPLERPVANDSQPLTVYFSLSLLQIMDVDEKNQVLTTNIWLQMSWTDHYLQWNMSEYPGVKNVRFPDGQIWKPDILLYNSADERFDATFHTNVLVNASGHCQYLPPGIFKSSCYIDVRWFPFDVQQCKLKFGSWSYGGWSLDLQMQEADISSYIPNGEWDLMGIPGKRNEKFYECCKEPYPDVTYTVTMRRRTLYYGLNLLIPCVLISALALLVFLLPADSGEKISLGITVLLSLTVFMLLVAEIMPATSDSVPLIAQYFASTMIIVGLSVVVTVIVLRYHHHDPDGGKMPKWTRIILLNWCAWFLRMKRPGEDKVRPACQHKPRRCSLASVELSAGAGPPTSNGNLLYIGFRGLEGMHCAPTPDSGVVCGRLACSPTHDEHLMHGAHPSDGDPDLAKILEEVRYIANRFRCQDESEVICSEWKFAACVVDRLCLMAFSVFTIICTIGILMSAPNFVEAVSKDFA

On to `COc1ccc(F)cc1NC[C@@H]1[C@@H](c2ccc(S(N)(=O)=O)cc2)C1(C)C` [Example 23, ±trans 4-[3-{[(5-fluoro-2-methoxyphenyl)amino]methyl}-2,2-dimethylcyclopropyl]benzenesulfonamide], for which the melting point (in general, the temperature of the solid-liquid transition) lay in the range of 164 to 166 °C. Also, the “Type I or Type II” value at rat α7 nAChRs is “II”.
With `Cc1ncccc1NC[C@@H]1[C@@H](c2ccc(S(N)(=O)=O)cc2)C1(C)C` [Example 36, ±trans 4-[2,2-dimethyl-3-{[(2-methylpyridin-3-yl)amino]methyl}cyclopropyl]benzenesulfonamide], the melting point was in the range of 174 to 176 °C. Moreover, on rat α7 nAChRs, the activation at 3 µM was 125% and the “Type I or Type II” value is recorded as “II”.
Compound `NS(=O)(=O)c1ccc([C@H]2C[C@@H]2CNc2cc(F)ccc2OC(F)(F)F)cc1` [Example 52, 4-[(1S,2S)-2-({[5-fluoro-2-(trifluoromethoxy)phenyl]amino}methyl)cyclopropyl]benzenesulfonamide] came in with a melting point of 115 to 118 °C. The “Type I or Type II” value at rat α7 nAChRs was “II”.
For `CCOc1ccc(Cl)cc1NC[C@@H]1[C@@H](c2ccc(S(N)(=O)=O)cc2)C1(C)C` [Example 27, ±trans 4-[3-{[(5-chloro-2-ethoxyphenyl)amino]methyl}-2,2-dimethylcyclopropyl]benzenesulfonamide], in that order: 122 to 124 °C and “I”.
The matching figures for `COc1ccc(C(F)(F)F)cc1NC[C@@H]1[C@@H](c2ccc(S(N)(=O)=O)cc2)C1(C)C` [Example 28, ±trans 4-[3-({[2-methoxy-5-(trifluoromethyl)phenyl]amino}methyl)-2,2-dimethylcyclopropyl]benzenesulfonamide]: 68 to 70 °C and “II”.
For `Cc1cc(F)c(Cl)cc1NC[C@@H]1[C@@H](c2ccc(S(N)(=O)=O)cc2)C1(C)C` [Example 37, ±trans 4-[3-{[(3-chloro-4-fluoro-2-methylphenyl)amino]methyl}-2,2-dimethylcyclopropyl]benzenesulfonamide], in that order: 164 to 166 °C and “II”.
Consider `Cc1ccc(Cl)cc1NC[C@@H]1[C@@H](c2ccc(S(N)(=O)=O)cc2)C1(C)C` [Example 22, ±trans 4-[3-{[(5-chloro-2-methylphenyl)amino]methyl}-2,2-dimethylcyclopropyl]benzenesulfonamide], for which the melting point fell in the range of 60 to 62 °C. Also, the “Type I or Type II” value at rat α7 nAChRs is reported as “II”.
The matching figures for `CC1(C)[C@H](CNc2cc(Cl)ccc2C(F)(F)F)[C@H]1c1ccc(S(N)(=O)=O)cc1` [Example 45, ±trans 4-[3-({[5-chloro-2-(trifluoromethyl)phenyl]amino}methyl)-2,2-dimethylcyclopropyl]benzenesulfonamide]: 124 to 126 °C and “I”.
`Cc1cccnc1NC[C@@H]1[C@@H](c2ccc(S(N)(=O)=O)cc2)C12CCCC2` [Example 49, ±trans 4-[2-{[(3-methylpyridin-2-yl)amino]methyl}spiro[2.4]hept-1-yl]benzenesulfonamide] yielded a melting point of 82 to 84 °C. The “Type I or Type II” value on rat α7 nAChRs was “II”.
For the compound `CC1(C)[C@H](CNC2CCCCC2(F)F)[C@H]1c1ccc(S(N)(=O)=O)cc1` (relative stereo) [Example 62, trans 4-(3-{[(2,2-difluorocyclohexyl)amino]methyl}-2,2-dimethylcyclopropyl)benzenesulfonamide], at rat α7 nAChRs, the activation at 3 µM was 38% and the “Type I or Type II” value is recorded as “II”.
For `COc1ccc(Cl)cc1NC[C@@H]1[C@@H](c2ccc(S(=O)(=O)NN)cc2)C1(C)C` [Example 56, ±trans 4-[3-{[(5-chloro-2-methoxyphenyl)amino]methyl}-2,2-dimethylcyclopropyl]benzenesulfonohydrazide], in that order: 131% and “I”.
Regarding `COc1ccc(Cl)cc1NC[C@H]1C[C@@H]1c1ccc(S(N)(=O)=O)cc1` [Example 1, ±trans 4-(2-{[(5-chloro-2-methoxyphenyl)amino]methyl}cyclopropyl)benzenesulfonamide], the “Type I or Type II” value on rat α7 nAChRs is reported as “II”.
With `CN(C[C@@H]1[C@@H](c2ccc(S(N)(=O)=O)cc2)C1(C)C)c1ccccc1` [Example 6, ±trans 4-(2,2-dimethyl-{[methyl(phenyl)amino]methyl}cyclopropyl)benzenesulfonamide], at rat α7 nAChRs, the activation at 3 µM stood at 506% and the “Type I or Type II” value is “I”.
The matching figures for `COc1ccc(Cl)cc1NC[C@@H]1[C@@H](c2ccc(S(=O)(=O)NO)cc2)C1(C)C` [Example 55, ±trans 4-[3-{[(5-chloro-2-methoxyphenyl)amino]methyl}-2,2-dimethylcyclopropyl]-N-hydroxybenzenesulfonamide]: 724% and “I”.
In the case of `CC1(C)C(c2ccc(S(N)(=O)=O)cc2)[C@H]1CNc1ccc(F)c(C(F)(F)F)c1` (mixture of isomers) [Example 33, ±trans 4-[3-({[4-fluoro-3-(trifluoromethyl)phenyl]amino}methyl)-2,2-dimethylcyclopropyl]benzenesulfonamide], the “Type I or Type II” value on rat α7 nAChRs was “II”.
Still for that read-out and setting: next, `CC1(C)[C@H](CNc2ccc(F)c(F)c2)[C@H]1c1ccc(S(N)(=O)=O)cc1` [Example 14, ±trans 4-[3-{[(3,4-difluorophenyl)amino]methyl}-2,2-dimethylcyclopropyl]benzenesulfonamide]: “II”; `Cc1ccc(F)cc1NC[C@H]1[C@H](c2ccc(S(N)(=O)=O)cc2)C1(C)C` [Example 31, 4-[(1S,3S)-3-{[(5-fluoro-2-methylphenyl)amino]methyl}-2,2-dimethylcyclopropyl]benzenesulfonamide]: “II”; `NS(=O)(=O)c1ccc([C@@H]2C[C@H]2CNc2cc(F)ccc2OC(F)(F)F)cc1` (stereo in doubt) [Example 53, 4-[(1R,2R)-2-({[5-fluoro-2-(trifluoromethoxy)phenyl]amino}methyl)cyclopropyl]benzenesulfonamide]: “II”.
On to `COc1ccc(Cl)cc1NC[C@@H]1[C@@H](c2ccc(NS(C)(=O)=O)cc2)C1(C)C` (racemic) [Example 46, ±trans N-{4-[3-{[(5-chloro-2-methoxyphenyl)amino]methyl}-2,2-dimethylcyclopropyl]phenyl}methanesulfonamide], for which, on rat α7 nAChRs, the activation at 3 µM stood at 783% and the “Type I or Type II” value is on record as “I”.
As to `COc1ccc(Cl)cc1NC[C@@H]1[C@@H](c2ccc(S(N)(=O)=O)cc2)C12CCCC2` [Example 8, ±trans 4-(2-{[(5-chloro-2-methoxyphenyl)amino]methyl}spiro[2.4]hept-1-yl)benzenesulfonamide], the “Type I or Type II” value at rat α7 nAChRs is given as “II”.
Regarding `NS(=O)(=O)c1ccc([C@@H]2C[C@H]2CNc2ccc(C(F)(F)F)cn2)cc1` [Example 19, 4-[(1R,2R)-2-({[5-(trifluoromethyl)pyridin-2-yl]amino}methyl)cyclopropyl]benzenesulfonamide], at rat α7 nAChRs, the activation at 3 µM was determined as 762% and the “Type I or Type II” value is “I”.
As for `Cc1cc(F)c(F)cc1NC[C@H]1[C@H](c2ccc(S(N)(=O)=O)cc2)C1(C)C` [Example 32, 4-[(1S,3S)-3-{[(4,5-difluoro-2-methylphenyl)amino]methyl}-2,2-dimethylcyclopropyl]benzenesulfonamide], the “Type I or Type II” value on rat α7 nAChRs is reported as “II”.
The same measure, in the same setting: as for `COc1ccc(Cl)cc1NC[C@@H]1[C@@H](c2ccc(NS(N)(=O)=O)cc2)C1(C)C` (racemic) [Example 59, ±trans N-[4-(3-{[(5-chloro-2-methoxyphenyl)amino]methyl}-2,2-dimethylcyclopropyl)phenyl]sulfuric diamide], the entry is “I”.
In the case of `CC1(C)[C@H](CNc2ccc(F)cc2C(F)(F)F)[C@H]1c1ccc(S(N)(=O)=O)cc1` [Example 15, 4-[(1R,3R)-3-({[4-fluoro-2-(trifluoromethyl)phenyl]amino}methyl)-2,2-dimethylcyclopropyl]benzenesulfonamide], at rat α7 nAChRs, the activation at 3 µM was determined as 413% and the “Type I or Type II” value is given as “I”.
